Measurements: publication PMC12246642 (iScience, 2025)

How the values were obtained:
SARS-CoV-2 Mpro [1] = target: T1, SARS-CoV-2 Mpro (Severe acute respiratory syndrome coronavirus 2, UniProt P0DTD1); test: biochemical; format: biochemical; conditions: aldehyde hydration penalty taken into account
SARS-CoV-2 Mpro [2] = target: T1, SARS-CoV-2 Mpro; test: Covalent bond (adduct) formation kinetics by IR-MALDESI intact protein MS; format: binding; conditions: for covalent complex formation in the titration of compound versus Mpro: up to 5-fold molar excess of compound, unquenched condition for compound 5
[3] = target: His tag SARS-CoV-2 3CLpro (1-306) F305A, Q306A (Severe acute respiratory syndrome coronavirus 2, UniProt P0DTD1, F3568A/Q3569A); format: binding

SMILES | likely affinity accounting for the hydration penalty (SARS-CoV-2 Mpro [1]) [pM] | time for which covalent binding persists after chase (reversibility of adduct formation) (SARS-CoV-2 Mpro [2]) | covalent complex formation in the titration of compound versus Mpro (SARS-CoV-2 Mpro [2]) | Kd [3] | T1/2 [3]
COc1cccc2[nH]c(C(=O)N[C@@H](CC3CC3)C(=O)N[C@H](C=O)C[C@@H]3CCNC3=O)cc12 [Compound 1, N-((S)-3-cyclopropyl-1-oxo-1-(((S)-1-oxo-3-((S)-2-oxopyrrolidin-3-yl)propan-2-yl)amino)propan-2-yl)-4-methoxy-1H-indole-2-carboxamide] | ~10 | at least 4 h | did not reach saturation | – | –
O=C[C@H](C[C@@H]1CCNC1=O)NC(=O)[C@H](CC1CC1)NC(=O)OCc1ccccc1 [Compound 2, benzyl ((S)-3-cyclopropyl-1-oxo-1-(((S)-1-oxo-3-((S)-2-oxopyrrolidin-3-yl)propan-2-yl)amino)propan-2-yl)carbamate] | ~10 | – | – | – | –
COc1cccc2[nH]c(C(=O)N[C@@H](CC3CC3)C(=O)N[C@H](C#N)C[C@@H]3CCNC3=O)cc12 [Compound 5, N-((S)-1-(((S)-1-cyano-2-((S)-2-oxopyrrolidin-3-yl)ethyl)amino)-3-cyclopropyl-1-oxopropan-2-yl)-4-methoxy-1H-indole-2-carboxamide] | – | ≤ 1 h | ~100% | – | –
CS(=O)(=O)CC[C@@H](C#N)NC(=O)[C@H](CC1CC1)NC(=O)OCc1ccccc1 [Compound 8, benzyl ((S)-1-(((S)-1-cyano-3-(methylsulfonyl)propyl)amino)-3-cyclopropyl-1-oxopropan-2-yl)carbamate] | – | – | – | No Activity | No activity
